Laboratory results from US8138196B2, “Antifungal wallboards and building materials and methods for the production thereof” (Syngenta Crop Protection, Inc., priority 2005, dated 2012).
Several values for one entry are separate records, joined by “and”; a condition that tells them apart may be missing. Equal values may be shown once.

Columns and labels:
Type in all cases: cell-based
[1] = test system: Aureobasidium pullulans (ATCC 15233); assay: Example 3 liquid culture assay on 24 well plates, solo and 2-way mixtures
From the text: (§1) Alternaria tenuissima (DSM 63360), Penicillium chrysogenum (DSM 895), Stachybotrys chartarum (DSM2144), Aspergillus niger (DSM 63263), Aspergillus versicolor (DSM 1943) and Aureobasidium pullulans (ATCC 15233) were separately cultivated on PDA media to […] sporulation. Spore suspensions were produced for each fungi. Spore concentrations of approx. 100.000 spores/ml were used.
(§2) Test method used: liquid culture assay on 24 well plates.
(§3) For solo (i.e. single) ai testing the formulated fungicide (100 ul) was filled into the 24 well plates and 100 ul distilled water was added. Afterwards 800 ul of 0.3% AE media was added to the plate. The spore suspension of the specific fungi was added to this media in advance containing approx. 100,000 spores/ml. The 24 well plates were sealed and incubated at 24° C.
(§4) Dependent on the growth properties of each organisms, the evaluation was done after 3 to 6 days, when the surface of the check well was covered with mycelium. The evaluation was performed by assessing the growth of the fungi related to the check growth. The results are expressed as % activity relative to the check (values of 0-100% growth). Afterwards the results were converted in % O growth inhibition.
(§5) For synergism testing of the 2-way mixtures 100 ul of each fungicide were filled into 24 well plates and 800 ul of 0.3% AE media containing the spore suspension was added. Different ratios of the 2 fungicide rates were tested at the same time.
(§6) For the mixtures of different fungicides the synergism was calculated based on the Colby equation, which is described below: […]
(§7) The fungicidal action to be expected, We, for a given combination of two fungicides can be calculated as follows (see COLBY, S. R. “Calculating synergistic and antagonistic response of herbicide combinations”. Weeds 15, pages 20-22; 1967): We=X+[Y×(100−X)/100] wherein: • X=% activity in the case of treatment with the compound of formula I at rate x, in comparison with untreated control (=0%). • Y=% activity in the case of treatment with a compound of formula II at rate y, in comparison with untreated control. • We=expected activity (% activity in comparison with untreated control) after treatment with the compound of formula I and a compound of formula II at a rate of x+y kg of active ingredient.
(§8) If the activity actually observed is greater than the expected value We (factor observed activity/expected activity >1.2), there is a synergistic effect.

[2] = test system: Alternaria tenuissima (DSM 63360); assay: as above
From the text: as §1, §2, §3, §4, §5, §6, §7, §8

[3] = test system: Aspergillus niger (DSM 63263); assay: as above; conditions: test 006-2005
From the text: as §1, §2, §3, §4, §5, §6, §7, §8

[4] = test system: Aspergillus versicolor (DSM 1943); assay: as above; conditions: test 006-2005; rate (FDL) 0.05 mg ai/l
From the text: as §1, §2, §3, §4, §5, §6, §7, §8

[5] = test system: Penicillium chrysogenum (DSM 895); assay: as above; conditions: test 006-2005
From the text: as §1, §2, §3, §4, §5, §6, §7, §8

[6] = test system: Alternaria tenuissima (DSM 63360); assay: Example 4 liquid culture assay on 24 and 48 well plates, 3 way mixtures; conditions: A. tenuissima
From the text: as §1, with “For test 006-2005: Alternaria” for “Alternaria”, “Cladosporium cladosporoides (DSM62121),” for “Stachybotrys chartarum (DSM2144),”, “fungus.” for “fungi.”, “100,000” for “100.000”
(§9) […] Spore suspensions were produced for each fungus. Spore concentrations of approx. 100,000 spores/ml were used.
(§10) Test method used: liquid culture assay on 24 and 48 well plates respectively.
(§11) For testing of the 3 way mixtures each of the formulated fungicide (100 ul) was filled into the 24 and 48 well plates respectively. Afterwards 700 ul of 0.3% AE media was added to the plate. The spore suspension of the specific fungi was added to this media in advance containing approx. 100,000 spores/ml. For testing the solo compounds the equivalent of distilled water was added instead of the formulated fungicide volume of the mixing partners. The plates were then sealed and incubated at 24° C.
as §4, with “%” for “% O”
(§12) For the mixtures of different fungicides the synergism was calculated based on the Colby equation, which is described above.

[7] = test system: Aspergillus niger (DSM 63263); assay: as above; conditions: A. niger
From the text: as §1, with “For test 006-2005: Alternaria” for “Alternaria”, “Cladosporium cladosporoides (DSM62121),” for “Stachybotrys chartarum (DSM2144),”, “fungus.” for “fungi.”, “100,000” for “100.000”
For test 015-2006: Alternaria tenuissima (DSM 63360), Penicillium pinophilum (CBS342.61), Gliocladium virens (DSM1963), Aspergillus niger (DSM 63263), Stachybotrys chartarum (DSM 2144) and Aureobasidium pullulans (ATCC 15233) were separately cultivated on PDA media to […] sporulation. Spore suspensions were produced for each fungus. Spore concentrations of approx. 100,000 spores/ml were used.
as §10, §11
as §4, with “%” for “% O”
as §12

[8] = test system: Aspergillus versicolor (DSM 1943); assay: as above; conditions: test 006-2005, A. versicolor
From the text: as §1, with “For test 006-2005: Alternaria” for “Alternaria”, “Cladosporium cladosporoides (DSM62121),” for “Stachybotrys chartarum (DSM2144),”, “fungus.” for “fungi.”, “100,000” for “100.000”
as §10, §11
as §4, with “%” for “% O”
as §12

[9] = test system: Stachybotrys chartarum (DSM 2144); assay: as above; conditions: test 015-2005, S. chartarum
Protocol: as §9, §10, §11
as §4, with “%” for “% O”
as §12

Coniophora puteana = assay: radial mycelial growth on fungicide amended agar; conditions: estimated from graph of % activity (radial mycelial growth relative to agar without fungicide) against concentration
Protocol: Stem cultures of Coniophora puteana were produced by propagating the fungus on a growth medium comprising yeast extract (10 g), glycerol (20 ml), magnesium sulphate (0.5 g), sodium nitrate (6.0 g), potassium chloride (0.5 g), potassium dihydrogen orthophosphate (1.5 g), agar (20 g) in distilled water (980 ml).
Fungicides were added at levels of 5000, 100, 10, 1, 0.1 and 0.01 mg fungicide/litre of growth medium (described above) to give […] different growth medium compositions for each fungicide. Mycelial plugs were taken from the stem cultures and transferred upside down onto petri dishes containing the fungicide amended agar.
The radial mycelial growth of the fungus was measured individually on all test petri dishes. The results are expressed as % activity relative to the radial growth on agar without fungicide.
For each fungicide, a graph was drawn of percentage activity against concentration of fungicide in the growth medium. From this graph, the concentrations of fungicide required to achieve 80% activity was estimated. These figures are given in the results table.

[10] = test system: Stachybotrys chartarum (DSM2144); assay: Example 3 liquid culture assay on 24 well plates, solo and 2-way mixtures; conditions: test 006-2005
From the text: as §1, §2, §3, §4, §5, §6, §7, §8

CC1COC(Cn2cncn2)(c2ccc(Oc3ccc(Cl)cc3)cc2Cl)O1 (centres unmarked) [Difenoconazole]
70%: inh % (DFZ alone) ([1]; test 006-2005, rate (DFZ) 3.12 mg ai/l)

N#Cc1c[nH]cc1-c1cccc2c1OC(F)(F)O2 [Fludioxonil]
50%: inh % (FDL alone) ([2]; test 015-2005, rate (FDL) 1.6 mg ai/l) | inh % (FDL alone) ([2]; test 015-2005, rate (FDL) 3.1 mg ai/l) | inh % (FDL alone) ([2]; test 015-2005, rate (FDL) 6.25 mg ai/l) | inh % (FDL alone) ([2]; test 015-2005, rate (FDL) 200 mg ai/l) | inh % (FDL alone) ([3]; rate (FDL) 0.2 mg ai/l) | inh % (FDL alone) ([5]; rate (FDL) 0.2 mg ai/l) | inh % (FDL alone) ([6]; test 006-2005, FDL 0.2 mg ai/l) | inh % (FDL alone) ([6]; test 015-2005, FDL 0.8 mg ai/l) | inh % (FDL alone) ([6]; test 015-2005, FDL 1.6 mg ai/l) | inh % (FDL alone) ([7]; test 006-2005, FDL 0.8 mg ai/l) | inh % (FDL alone) ([7]; test 015-2005, FDL 0.8 mg ai/l) | inh % (FDL alone) ([7]; test 015-2005, FDL 1.6 mg ai/l) | inh % (FDL alone) ([7]; test 015-2005, FDL 3.1 mg ai/l) | inh % (FDL alone) ([9]; FDL 0.2 mg ai/l)
10%: inh % (FDL alone) [4] | inh % (FDL alone) ([9]; FDL 0.05 mg ai/l)
70%: inh % (FDL alone) ([2]; test 006-2005, rate (FDL) 0.2 mg ai/l) | inh % (FDL alone) ([2]; test 015-2005, rate (FDL) 12.5 mg ai/l) | inh % (FDL alone) ([2]; test 015-2005, rate (FDL) 25 mg ai/l) | inh % (FDL alone) ([2]; test 015-2005, rate (FDL) 50 mg ai/l) | inh % (FDL alone) ([2]; test 015-2005, rate (FDL) 100 mg ai/l) | inh % (FDL alone) ([3]; rate (FDL) 0.8 mg ai/l) | inh % (FDL alone) ([3]; rate (FDL) 1.6 mg ai/l) | inh % (FDL alone) ([3]; rate (FDL) 3.12 mg ai/l) | inh % (FDL alone) ([3]; rate (FDL) 12.5 mg ai/l) | inh % (FDL alone) ([6]; test 006-2005, FDL 0.8 mg ai/l) | inh % (FDL alone) ([6]; test 006-2005, FDL 1.6 mg ai/l)
0%: inh % (FDL alone) ([5]; rate (FDL) 0.05 mg ai/l) | inh % (FDL alone) ([8]; FDL 0.2 mg ai/l) | inh % (FDL alone) ([8]; FDL 0.8 mg ai/l) | inh % (FDL alone) ([8]; FDL 1.6 mg ai/l)
30%: inh % (FDL alone) ([2]; test 015-2005, rate (FDL) 0.2 mg ai/l) | inh % (FDL alone) ([2]; test 015-2005, rate (FDL) 0.4 mg ai/l) | inh % (FDL alone) ([2]; test 015-2005, rate (FDL) 0.8 mg ai/l)

CCCC1COC(Cn2cncn2)(c2ccc(Cl)cc2Cl)O1 (centres unmarked) [Propiconazole]
0%: inh % (PPZ alone) ([10]; rate (PPZ) 0.8 mg ai/l)
1.8 mg/L: Concentration required for 80% Activity (Coniophora puteana)
70%: inh % (PPZ alone) ([1]; test 006-2005, rate (PPZ) 1.6 mg ai/l) | inh % (PPZ alone) ([1]; test 006-2005, rate (PPZ) 3.12 mg ai/l) | inh % (PPZ alone) ([1]; test 006-2005, rate (PPZ) 12.5 mg ai/l) | inh % (PPZ alone) ([1]; test 015-2005, rate (PPZ) 50 mg ai/l)
50%: inh % (PPZ alone) ([1]; test 015-2005, rate (PPZ) 25 mg ai/l)
10%: inh % (PPZ alone) ([10]; rate (PPZ) 1.6 mg ai/l) | inh % (PPZ alone) ([10]; rate (PPZ) 3.12 mg ai/l)

c1ccc2[nH]c(-c3cscn3)nc2c1 [Thiabendazole]
10%: inh % (TBZ alone) ([8]; TBZ 1.6 mg ai/l) | inh % (TBZ alone) ([9]; TBZ 6.25 mg ai/l)
>5000 mg/L: Concentration required for 80% Activity (Coniophora puteana)
30%: inh % (TBZ alone) ([9]; TBZ 25 mg ai/l)
0% and 10%: inh % (TBZ alone) ([9]; TBZ 3.1 mg ai/l, listed as TBZ)
0%: inh % (TBZ alone) ([2]; test 015-2005, rate (TBZ) 12.5 mg ai/l) | inh % (TBZ alone) ([2]; test 015-2005, rate (TBZ) 25 mg ai/l) | inh % (TBZ alone) ([2]; test 015-2005, rate (TBZ) 50 mg ai/l) | inh % (TBZ alone) ([2]; test 015-2005, rate (TBZ) 100 mg ai/l) | inh % (TBZ alone) ([2]; test 015-2005, rate (TBZ) 200 mg ai/l) | inh % (TBZ alone) ([6]; test 006-2005, TBZ 0.2 mg ai/l) | inh % (TBZ alone) ([6]; test 006-2005, TBZ 0.8 mg ai/l) | inh % (TBZ alone) ([6]; test 006-2005, TBZ 1.6 mg ai/l) | inh % (TBZ alone) ([6]; test 015-2005, TBZ 0.2 mg ai/l) | inh % (TBZ alone) ([6]; test 015-2005, TBZ 1.6 mg ai/l) | inh % (TBZ alone) ([6]; test 015-2005, TBZ 3.1 mg ai/l) | inh % (TBZ alone) ([6]; test 015-2005, TBZ 6.25 mg ai/l) | inh % (TBZ alone) ([6]; test 015-2005, TBZ 25 mg ai/l) | inh % (TBZ alone) ([6]; test 015-2005, TBZ 100 mg ai/l) | inh % (TBZ alone) ([7]; test 006-2005, TBZ 0.8 mg ai/l) | inh % (TBZ alone) ([7]; test 015-2005, TBZ 0.2 mg ai/l) | inh % (TBZ alone) ([7]; test 015-2005, TBZ 0.8 mg ai/l) | inh % (TBZ alone) ([8]; TBZ 0.2 mg ai/l) | inh % (TBZ alone) ([8]; TBZ 0.8 mg ai/l)
